The results in this text go back to patent US20250144094A1 (Erasca, Inc., priority 2021, published 2025).

Sequence of Recombinant human ULK1 (1-649) (O75385 1-649): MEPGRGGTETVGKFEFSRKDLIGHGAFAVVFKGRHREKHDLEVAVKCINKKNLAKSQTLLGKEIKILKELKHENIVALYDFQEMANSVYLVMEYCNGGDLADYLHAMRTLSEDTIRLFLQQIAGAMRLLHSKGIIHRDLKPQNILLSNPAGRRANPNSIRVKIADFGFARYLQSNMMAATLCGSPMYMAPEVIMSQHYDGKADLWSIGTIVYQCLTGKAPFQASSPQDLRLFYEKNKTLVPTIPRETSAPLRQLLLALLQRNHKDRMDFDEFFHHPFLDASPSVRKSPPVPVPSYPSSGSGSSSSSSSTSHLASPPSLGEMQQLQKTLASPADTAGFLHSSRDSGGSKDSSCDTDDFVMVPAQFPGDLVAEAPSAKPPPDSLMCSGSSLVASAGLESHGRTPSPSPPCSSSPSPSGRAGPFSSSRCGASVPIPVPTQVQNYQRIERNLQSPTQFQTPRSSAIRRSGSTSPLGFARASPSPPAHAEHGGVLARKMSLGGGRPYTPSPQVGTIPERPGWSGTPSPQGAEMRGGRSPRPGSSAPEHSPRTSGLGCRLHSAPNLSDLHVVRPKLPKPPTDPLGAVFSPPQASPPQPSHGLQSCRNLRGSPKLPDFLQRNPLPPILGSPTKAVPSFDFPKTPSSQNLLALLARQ

The target of the test is Recombinant human ULK1 (1-649) (Homo sapiens (Human), UniProt O75385). Description: ULK1 ADP Glo kinase activity assay, new method (ULKtide peptide substrate). The conditions noted are these: 25° C., 40 minutes, read-out: ULK1 biochemical IC50. Summed up:
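GST-tagged human ULK1 (1-649) from Sf9 cells was reacted with ULKtide peptide and ATP for 40 min at 25 °C across 12-point compound dilutions from 10 μM. ADP formed was quantified by ADP-Glo luminescence; IC50 came from four-parameter fits relative to DMSO controls.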
Regarding `O=C1c2sc(-c3nc(Nc4cc5c(cc4C4CC4)CN(CCOC(F)(F)F)CC5)ncc3C(F)(F)F)cc2S(=O)(=O)CCN1C1COC1` [Example 312, 7-(2-((7-cyclopropyl-2-(2-(trifluoromethoxy)ethyl)-1,2,3,4-tetrahydroisoquinolin-6-yl)amino)-5-(trifluoromethyl)pyrimidin-4-yl)-4-(oxetan-3-yl)-3,4-dihydrothieno[2,3-f][1,4]thiazepin-5(2H)-one 1,1-dioxide], the IC50 was in the range of 5 to 10 nM.

Consider `CN1[C@@H]2CC[C@H]1CN(c1ccc(Nc3ncc(C(F)(F)F)c(-c4cc5c(s4)C(=O)N(C4CC4)CCS5(=O)=O)n3)c(C3CC3)c1)C2` [Example 313, 4-cyclopropyl-7-(2-((2-cyclopropyl-4-((1R,5S)-8-methyl-3,8-diazabicyclo[3.2.1]octan-3-yl)phenyl)amino)-5-(trifluoromethyl)pyrimidin-4-yl)-3,4-dihydrothieno[2,3-f][1,4]thiazepin-5(2H)-one 1,1-dioxide], for which the half-maximal inhibitory concentration (IC50) is not above 5 nM.

With `O=C1c2sc(-c3nc(Nc4cc5c(cc4C4CC4)CN(CCOC(F)(F)F)CC5)ncc3C(F)(F)F)cc2S(=O)(=O)CCN1C1CC1` [Example 314, 4-cyclopropyl-7-(2-((7-cyclopropyl-2-(2-(trifluoromethoxy)ethyl)-1,2,3,4-tetrahydroisoquinolin-6-yl)amino)-5-(trifluoromethyl)pyrimidin-4-yl)-3,4-dihydrothieno[2,3-f][1,4]thiazepin-5(2H)-one 1,1-dioxide], the IC50 was 10 to 50 nM.

With `C[C@@H]1CN(c2ccc(Nc3ncc(C(F)(F)F)c(-c4cc5c(s4)C(=O)N(C4COC4)CCS5(=O)=O)n3)c(C3CC3)c2)CCN1` [Example 315, (R)-7-(2-((2-cyclopropyl-4-(3-methylpiperazin-1-yl)phenyl)amino)-5-(trifluoromethyl)pyrimidin-4-yl)-4-(oxetan-3-yl)-3,4-dihydrothieno[2,3-f][1,4]thiazepin-5(2H)-one 1,1-dioxide], the IC50 was not above 5 nM.

On to `C[C@@H]1CN(c2ccc(Nc3ncc(C(F)(F)F)c(-c4cc5c(s4)C(=O)N(C4COC4)CCS5(=O)=O)n3)c(C3CC3)c2)CCN1C` [Example 316, (R)-7-(2-((2-cyclopropyl-4-(3,4-dimethylpiperazin-1-yl)phenyl)amino)-5-(trifluoromethyl)pyrimidin-4-yl)-4-(oxetan-3-yl)-3,4-dihydrothieno[2,3-f][1,4]thiazepin-5(2H)-one 1,1-dioxide], for which the IC50 is not above 5 nM.

For the molecule `CN1C[C@@H]2C[C@H]1CN2c1ccc(Nc2ncc(C(F)(F)F)c(-c3cc4c(s3)C(=O)N(C3COC3)CCS4(=O)=O)n2)c(C2CC2)c1` [Example 317, 7-(2-((2-cyclopropyl-4-((1S,4S)-5-methyl-2,5-diazabicyclo[2.2.1]heptan-2-yl)phenyl)amino)-5-(trifluoromethyl)pyrimidin-4-yl)-4-(oxetan-3-yl)-3,4-dihydrothieno[2,3-f][1,4]thiazepin-5(2H)-one 1,1-dioxide], the IC50 is not above 5 nM.

Consider `O=C1c2sc(-c3nc(Nc4ccc(N5C[C@H]6CC[C@@H](C5)N6)cc4C4CC4)ncc3C(F)(F)F)cc2S(=O)(=O)CCN1C1COC1` [Example 318, 7-(2-((4-((1R,5S)-3,8-diazabicyclo[3.2.1]octan-3-yl)-2-cyclopropylphenyl)amino)-5-(trifluoromethyl)pyrimidin-4-yl)-4-(oxetan-3-yl)-3,4-dihydrothieno[2,3-f][1,4]thiazepin-5(2H)-one 1,1-dioxide], for which the half-maximal inhibitory concentration (IC50) was not above 5 nM.

As for `CCc1cc(N2C[C@@H]3C[C@H]2CN3)ccc1Nc1ncc(C(F)(F)F)c(-c2cc3c(s2)C(=O)N(C2CC2)CCS3(=O)=O)n1` [Example 319, 7-(2-((4-((1S,4S)-2,5-diazabicyclo[2.2.1]heptan-2-yl)-2-ethylphenyl)amino)-5-(trifluoromethyl)pyrimidin-4-yl)-4-cyclopropyl-3,4-dihydrothieno[2,3-f][1,4]thiazepin-5(2H)-one 1,1-dioxide], the IC50 is not above 5 nM.

As to `CN1[C@@H]2CC[C@H]1CN(c1ccc(Nc3ncc(C(F)(F)F)c(-c4cc5c(s4)C(=O)N(C4COC4)CCS5(=O)=O)n3)c(C3CC3)c1)C2` [Example 320, 7-(2-((2-cyclopropyl-4-((1R,5S)-8-methyl-3,8-diazabicyclo[3.2.1]octan-3-yl)phenyl)amino)-5-(trifluoromethyl)pyrimidin-4-yl)-4-(oxetan-3-yl)-3,4-dihydrothieno[2,3-f][1,4]thiazepin-5(2H)-one 1,1-dioxide], the IC50 was not above 5 nM.

With `CCc1cc(N2C[C@@H]3C[C@H]2CN3C)ccc1Nc1ncc(C(F)(F)F)c(-c2cc3c(s2)C(=O)N(C2CC2)CCS3(=O)=O)n1` [Example 321, 4-cyclopropyl-7-(2-((2-ethyl-4-((1S,4S)-5-methyl-2,5-diazabicyclo[2.2.1]heptan-2-yl)phenyl)amino)-5-(trifluoromethyl)pyrimidin-4-yl)-3,4-dihydrothieno[2,3-f][1,4]thiazepin-5(2H)-one 1,1-dioxide], the IC50 was not above 5 nM.

With `CCc1cc(N2C[C@H]3C[C@@H]2CN3)ccc1Nc1ncc(C(F)(F)F)c(-c2cc3c(s2)C(=O)N(C2CC2)CCS3(=O)=O)n1` [Example 322, 7-(2-((4-((1R,4R)-2,5-diazabicyclo[2.2.1]heptan-2-yl)-2-ethylphenyl)amino)-5-(trifluoromethyl)pyrimidin-4-yl)-4-cyclopropyl-3,4-dihydrothieno[2,3-f][1,4]thiazepin-5(2H)-one 1,1-dioxide], the IC50 was not above 5 nM.

As for `CCc1cc(N2C[C@H]3C[C@@H]2CN3C)ccc1Nc1ncc(C(F)(F)F)c(-c2cc3c(s2)C(=O)N(C2CC2)CCS3(=O)=O)n1` [Example 323, 4-cyclopropyl-7-(2-((2-ethyl-4-((1R,4R)-5-methyl-2,5-diazabicyclo[2.2.1]heptan-2-yl)phenyl)amino)-5-(trifluoromethyl)pyrimidin-4-yl)-3,4-dihydrothieno[2,3-f][1,4]thiazepin-5(2H)-one 1,1-dioxide], the IC50 is not above 5 nM.

Regarding `CCc1cc(N2C[C@H]3CC[C@@H](C2)N3)ccc1Nc1ncc(C(F)(F)F)c(-c2cc3c(s2)C(=O)N(C2CC2)CCS3(=O)=O)n1` [Example 324, 7-(2-((4-((1R,5S)-3,8-diazabicyclo[3.2.1]octan-3-yl)-2-ethylphenyl)amino)-5-(trifluoromethyl)pyrimidin-4-yl)-4-cyclopropyl-3,4-dihydrothieno[2,3-f][1,4]thiazepin-5(2H)-one 1,1-dioxide], the IC50 was not above 5 nM.

Regarding `CCc1cc(N2C[C@H]3CC[C@@H](C2)N3C)ccc1Nc1ncc(C(F)(F)F)c(-c2cc3c(s2)C(=O)N(C2CC2)CCS3(=O)=O)n1` [Example 325, 4-cyclopropyl-7-(2-((2-ethyl-4-((1R,5S)-8-methyl-3,8-diazabicyclo[3.2.1]octan-3-yl)phenyl)amino)-5-(trifluoromethyl)pyrimidin-4-yl)-3,4-dihydrothieno[2,3-f][1,4]thiazepin-5(2H)-one 1,1-dioxide], the IC50 is not above 5 nM.

For `C[C@@H]1CN(c2ccc(Nc3ncc(C(F)(F)F)c(-c4cc5c(s4)C(=O)N(C4CC4)CCS5(=O)=O)n3)c(C3CC3)c2)C[C@H](C)N1` [Example 326, 4-cyclopropyl-7-(2-((2-cyclopropyl-4-((3S,5R)-3,5-dimethylpiperazin-1-yl)phenyl)amino)-5-(trifluoromethyl)pyrimidin-4-yl)-3,4-dihydrothieno[2,3-f][1,4]thiazepin-5(2H)-one 1,1-dioxide], the IC50 is not above 5 nM.

Turning to `C[C@H]1CN(c2ccc(Nc3ncc(C(F)(F)F)c(-c4cc5c(s4)C(=O)N(C4CC4)CCS5(=O)=O)n3)c(C3CC3)c2)C[C@H](C)N1` [Example 327, 4-cyclopropyl-7-(2-((2-cyclopropyl-4-((3S,5S)-3,5-dimethylpiperazin-1-yl)phenyl)amino)-5-(trifluoromethyl)pyrimidin-4-yl)-3,4-dihydrothieno[2,3-f][1,4]thiazepin-5(2H)-one 1,1-dioxide], the IC50 was not above 5 nM.

Consider `C[C@H]1CN(c2ccc(Nc3ncc(C(F)(F)F)c(-c4cc5c(s4)C(=O)N(C4CC4)CCS5(=O)=O)n3)c(C3CC3)c2)C[C@H](C)N1C` [Example 328, 4-cyclopropyl-7-(2-((2-cyclopropyl-4-((3S,5S)-3,4,5-trimethylpiperazin-1-yl)phenyl)amino)-5-(trifluoromethyl)pyrimidin-4-yl)-3,4-dihydrothieno[2,3-f][1,4]thiazepin-5(2H)-one 1,1-dioxide], for which the IC50 fell in the range of 5 to 10 nM.

As to `O=C1c2sc(-c3nc(Nc4ccc(N5C[C@H]6C[C@@H]5CN6)cc4C4CC4)ncc3C(F)(F)F)cc2S(=O)(=O)CCN1C1CC1` [Example 329, 7-(2-((4-((1R,4R)-2,5-diazabicyclo[2.2.1]heptan-2-yl)-2-cyclopropylphenyl)amino)-5-(trifluoromethyl)pyrimidin-4-yl)-4-cyclopropyl-3,4-dihydrothieno[2,3-f][1,4]thiazepin-5(2H)-one 1,1-dioxide], the IC50 is not above 5 nM.

Consider `CN1C[C@H]2C[C@@H]1CN2c1ccc(Nc2ncc(C(F)(F)F)c(-c3cc4c(s3)C(=O)N(C3CC3)CCS4(=O)=O)n2)c(C2CC2)c1` [Example 330, 4-cyclopropyl-7-(2-((2-cyclopropyl-4-((1R,4R)-5-methyl-2,5-diazabicyclo[2.2.1]heptan-2-yl)phenyl)amino)-5-(trifluoromethyl)pyrimidin-4-yl)-3,4-dihydrothieno[2,3-f][1,4]thiazepin-5(2H)-one 1,1-dioxide], for which the IC50 is not above 5 nM.

For the molecule `C[C@H]1CN(c2ccc(Nc3ncc(C(F)(F)F)c(-c4cc5c(s4)C(=O)N(C4CC4)CCS5(=O)=O)n3)c(C3CC3)c2)CCN1` [Example 331, (S)-4-cyclopropyl-7-(2-((2-cyclopropyl-4-(3-methylpiperazin-1-yl)phenyl)amino)-5-(trifluoromethyl)pyrimidin-4-yl)-3,4-dihydrothieno[2,3-f][1,4]thiazepin-5(2H)-one 1,1-dioxide], the IC50 was not above 5 nM.
